Measured values published in patent US9617276B2, “Compounds and methods for treating AIDS and HIV infections” (priority 2009, dated 2017).
Like-named read-outs stand apart in the source and are kept apart here.

Key:
HIV-1 [1] = settings: prior inhibitors; read-out: ID50 (the source's name); cited from earlier work
HIV-1 protease = target: T1, HIV-1 protease (Human immunodeficiency virus type 1 group M subtype B, UniProt P04585); test: HIV protease enzyme inhibition, fluorometric assay of Toth and Marshall; type: biochemical; settings: Ki, Table 2
T1 construct: A simple, continuous fluorometric assay for HIV protease
Protocol: (§1) The inhibitory potencies of acyclic and cyclic inhibitors were measured by the assay protocol of Toth and Marshall (Toth, M. V.; Marshall, G. R. A simple, continuous fluorometric assay for HIV protease. Int. J. Pep. Protien Res. 1990, 36, 544-55).

HIV-1 [2] = test: antiviral assay (IC50); type: cell-based; settings: Human immunodeficiency virus 1, Table 2; read-out: IC50
Protocol: as §1

HIV-1LAI = test: drug susceptibility, MT-2 cells, MTT assay, HIV-1LAI; type: cell-based
Protocol: (§2) All assays were performed in duplicate or triplicate. […] All assays were performed in duplicate or triplicate.
(§3) Each selectivity index denotes a ratio of CC50 to EC50 against HIV-1LAI N.D., not done.

cytotoxicity CC50 = type: cell-based, Human; settings: human
HIV-1NL4-3 [3] = test: p24 Gag inhibition in MT-4 cells, HIV-1NL4-3; type: cell-based; settings: Human immunodeficiency virus 1, MT4, read-out: EC50 (μM), HIV-1NL4-3, Table 9, mean ± 1 SD
Protocol: as §2

HIV-1216-P50 = test: microbe, parasite or virus in culture; type: cell-based, HIV-1
Protocol: (§4) Briefly, MT-2 cells (2×10^4/ml) were exposed to 100 50% tissue culture infectious doses (TCID50S) of HIV-1LAI, in the presence or absence of various concentrations of drugs in 96-well microculture plates and were incubated at 37° C. for 7 days. After 100 μl of the medium was removed from each well, 3-(4,5-dimetylthiazol-2-yl)-2,5-diphenyltetrazolium bromide (MTT) solution (10 μl, 7.5 mg/ml in phosphate-buffered saline) was added to each well in the plate, followed by incubation at 37° C. for 3 h. […] All assays were performed in duplicate or triplicate. […] To determine the drug susceptibility of certain laboratory HIV-1 strains, MT-4 cells were used as target cells. In brief, MT-4 cells (10^5/ml) were exposed to 100 TCID50S of drug-resistant HIV-1 strains in the presence or absence of various concentrations of drugs and on day 7 of culture, the supernatant was harvested and the amounts of p24 Gag protein were determined. […] All assays were performed in duplicate or triplicate.
(§5) Numbers in parentheses represent n-fold changes in EC50s for each isolate compared to the EC50s for wild-type HIV-1NL4-3.

HIV-1246-1μM = test: microbe, parasite or virus in culture; type: cell-based, HIV-1; settings: for EC50: Human immunodeficiency virus 1, MT4, read-out: EC50 (μM), HIV-1246-1 μM
Protocol: as §4, §5

HIV-1286-1μM = test: microbe, parasite or virus in culture; type: cell-based, HIV-1
Protocol: as §4, §5

HIV-1396-1μM = test: microbe, parasite or virus in culture; type: cell-based, HIV-1; settings: for EC50: Human immunodeficiency virus 1, MT4, read-out: EC50 (μM), HIV-1396-1 μM
Protocol: as §4, §5

HIV-1NL4-3 [4] = test: in vitro selection of PI-resistant HIV-1 variants in MT-4 cells; type: cell-based; settings: HIV-1NL4-3 in MT-4 cells, increasing drug concentrations
Source text: The culture supernatants were harvested on day 7 and used to infect fresh MT-4 cells for the next round of culture in the presence of increasing concentrations of each drug.

HIV-2EHO = test: drug susceptibility, MT-2 cells, MTT assay, HIV-2EHO; type: cell-based; settings: Human immunodeficiency virus 2, MT2, read-out: EC50 (μM) for HIV-2EHO
Protocol: as §2, §3

HIV-2ROD = test: drug susceptibility, MT-2 cells, MTT assay, HIV-2ROD; type: cell-based; settings: Human immunodeficiency virus 2, MT2, read-out: EC50 (μM) for HIV-2ROD
Protocol: as §2, §3

HIV-1APV5μM = test: microbe, parasite or virus in culture; type: cell-based; settings: Human immunodeficiency virus 1, MT4, read-out: EC50 (μM), HIV-1APV5 μM
Protocol: (§6) The susceptibility of HIV-1LAI and primary HIV-1 isolates to various drugs were determined as described previously (Koh et al. 2003 Antimicrob Agents Chemother 47:3123-9). Briefly, MT-2 cells (2×10^4/ml) were exposed to 100 50% tissue culture infectious doses (TCID50S) of HIV-1LAI, in the presence or absence of various concentrations of drugs in 96-well microculture plates and were incubated at 37° C. for 7 days. After 100 μl of the medium was removed from each well, 3-(4,5-dimetylthiazol-2-yl)-2,5-diphenyltetrazolium bromide (MTT) solution (10 μl, 7.5 mg/ml in phosphate-buffered saline) was added to each well in the plate, followed by incubation at 37° C. for 3 h. […] All assays were performed in duplicate or triplicate. To determine the susceptibility of primary HIV-1 isolates to drugs, phytohemagglutinin-activated peripheral blood mononuclear cells (PHA-PBMCs; 106/ml) were exposed to 50 TCID50S of each. The target cells were exposed to HIV-1104pre or drug-resistant HIV-1 in the presence or absence of various concentrations of drugs and were incubated for 7 days. Upon the conclusion of the culture, the amounts of p24 Gag protein in the supernatants were determined using a fully automated chemiluminescent enzyme immunoassay system (Lumipulse F; Fujirebio Inc., Tokyo, Japan) (Maeda et al. 2001 J Biol Chem 276:35194-200). To determine the drug susceptibility of certain laboratory HIV-1 strains, MT-4 cells were used as target cells. In brief, MT-4 cells (10^5/ml) were exposed to 100 TCID50S of drug-resistant HIV-1 strains in the presence or absence of various concentrations of drugs and on day 7 of culture, the supernatant was harvested and the amounts of p24 Gag protein were determined. […] All assays were performed in duplicate or triplicate.
as §5

HIV-1LPV5μM = test: microbe, parasite or virus in culture; type: cell-based; settings: Human immunodeficiency virus 1, MT4, read-out: EC50 (μM), HIV-1LPV5 μM
Protocol: as §6, §5

[5] = system: multidrug-resistant clinical HIV-1 isolates (HIV-1MDR); test: microbe, parasite or virus in culture; type: cell-based; settings: Human immunodeficiency virus 1, read-out: greatest EC50 value against the clinical isolates
Protocol: as §6
These clinical strains contained 9 to 14 amino acid substitutions in the protease-encoding region, which have reportedly been associated with HIV-1 resistance to various PIs.
Amino acid substitutions identified in the protease-encoding region compared to the consensus type B sequence cited from the Los Alamos database include L63P in HIV-1ERS104pre; L10I, K14R, L33I, M36I, M46I, F53I, K55R, I62V, L63P, A71V, G73S, V82A, L90M, and I93L in HIV-1MDR/B; L10I, I15V, K20R, L24I, M36I, M46L, I54V, I62V, L63P, K70Q, V82A, and L89M in HIV-1MDR/C; L10I, V11I, T12E, I15V, L19I, R41K, M46L, L63P, A71T, V82A, and L90M in HIV-1MDR/G; L10I, K14R, R41K, M46L, I54V, L63P, A71V, V82A, L90M, I93L in HIV-1MDR/TM; L10I, K43T, M46L, I54V, L63P, A71V, V82A, L90M, and Q92K in HIV-1MDR/MM; L10I, L24I, I33F, E35D, M36I, N37S, M46L, I54V, R57K, I62V, L63P, A71V, G73S, and V82A in HIV-1MDR/JSL. HIV-1ERS104pre served as a source of wild-type HIV-1. EC50s were determined by using PHA-PBMs as target cells, and inhibition of p24 Gag protein production by each drug was used as an end point. Numbers in parentheses represent n-fold changes of EC50s for each isolate compared to EC50s for wild-type HIV-1ERS104pre.

[6] = compared to wild-type HIV-1NL4-3

COc1ccc(S(=O)(=O)N(CC(C)C)CC(O)C(Cc2ccccc2)NC(=O)OC2COC3OCCC23)cc1 (centres unmarked) [Compound 2, TMC-126]
IC50 (HIV-1 [1]): 0.0012 µM

COc1ccc2c(c1)OCC=CCCCCN(CC(O)C(Cc1ccccc1)NC(=O)OC1COC3OCCC13)S2(=O)=O (centres unmarked) [Compound 14d]
Ki (HIV-1 protease): < 0.001 µM
IC50 (HIV-1 [2]): < 0.1 µM
EC50 (HIV-1LAI; Human immunodeficiency virus 1, MT2, read-out: EC50 (μM) for HIV-1LAI): 0.014 ± 0.001 µM
Selectivity Index (HIV-1LAI; ratio of CC50 to EC50 against HIV-1LAI): 3,200
CC50 (cytotoxicity CC50): 44.9 ± 4.1 µM
EC50 (HIV-1NL4-3 [3]): 0.017 ± 0.005 µM
EC50 (HIV-1216-P50; Human immunodeficiency virus 1, MT4, read-out: EC50 (μM), HIV-1216-p50): 0.24 ± 0.06 µM
n-fold change in EC50, HIV-1216-p50 (HIV-1216-P50; [6]): (14)
EC50 (HIV-1246-1μM): 0.37 ± 0.013 µM
n-fold change in EC50, HIV-1246-1 μM (HIV-1246-1μM; [6]): (22)
EC50 (HIV-1286-1μM; Human immunodeficiency virus 1, MT4, read-out: EC50 (μM), HIV-1286-1 μM): > 1 µM
n-fold change in EC50, HIV-1286-1 μM (HIV-1286-1μM; [6]): > 59
EC50 (HIV-1396-1μM): 0.52 ± 0.07 µM
n-fold change in EC50, HIV-1396-1 μM (HIV-1396-1μM; [6]): (31)
passage by which HIV-1 variants replicating in the presence of 1 μM drug emerged (HIV-1NL4-3 [4]): 33 passages

CC(C)CN(C[C@@H](O)[C@H](Cc1ccccc1)NC(=O)O[C@H]1CO[C@H]2OCC[C@H]21)S(=O)(=O)c1ccc(N)cc1 [DRV, Darunavir]
EC50 (HIV-2EHO): 0.008 ± 0.007 µM
EC50 (HIV-2ROD): 0.01 ± 0.004 µM
EC50 (HIV-1APV5μM): 0.29 ± 0.0018 µM
EC50 (HIV-1LPV5μM): 0.025 ± 0.0066 µM
EC50 [5]: 0.027 µM
EC50 (HIV-1246-1μM): 0.029 ± 0.001 µM
EC50 (HIV-1396-1μM): 0.016 ± 0.001 µM
